The values that follow come from patent publication US9896422B2, “Tetracycline derivatives with reduced antibiotic activity and neuroprotective benefits” (Neumedics, priority 2008, dated 2018).

Like-named read-outs stand apart in the source and are kept apart here.

For one data set, the system named is E. Coli. Put plainly: Antimicrobial susceptibility (zone of inhibition) test, Kirby-Bauer disc diffusion. The class given is cell-based. The note with it: samples 30 ug/ml, Muller-Hinton agar, about 24 hrs. How it is done:
(§1) Anti-microbial susceptibility (zone of inhibition) tests were conducted by an outside analytical laboratory. The Kirby-Bauer or disc diffusion method of assessing antimicrobial activity is an established literature procedure and was used with some modifications to the standard protocol: 1) S. Aureus and E. Coli were grown in Muller-Hinton broth and incubated at 30-35° C. for 18-24 hrs, 2) samples were diluted in sterile water for injections or pure water to achieve a concentration of 30 ug/ml and were plated in triplicate, and 3) the test plates were prepared using Muller-Hinton agar and incubated at 30-35° C. for approximately 24 hrs.
(§2) The diameters of the zone of inhibition (if present) around the test sample were measured using calibrated calipers. […] 3a has some activity (average zone of 24.45 mm) against S. Aureus.
(In general: A growth-free zone around the sample is the usual read-out of agar diffusion tests.)

Data set [1] can be described thus: Intravenous blood brain barrier (BBB) penetration assay in mice. The class given is in vivo, CD-1 mice. Particulars: 1 mg/kg tail-vein. How it is done: Intravenous blood brain barrier (BBB) penetration of Compounds 38 and 3b in mice was assessed by an outside analytical laboratory using the standard protocol. CD-1 mice were tail-vein injected with 38 or 3b (1 mg/kg, n=3), and the plasma and brain samples were collected at 30, 60 and 180 min time intervals. The concentration of 38 and 3b in brain (ng/g tissue), plasma and the ratio of the brain concentration at each time point were determined by acetonitrile precipitation of the test compounds from the samples followed by HPLC-MS?MS analysis.
After treatment of the animals with the test compounds, plasma samples were collected by cardiac puncture. Blood aliquots (300-400 μL) were collected in lithium heparincoated tubes, mixed gently, then kept on ice and centrifuged at 2,500×g for 15 minutes at 4° C. within 1 hour of collection. Plasma was then harvested and kept frozen at −20° C. until further processing.
Immediately after blood sampling, mice were decapitated and the whole brains were quickly removed, rinsed with cold saline (0.9% NaCl, g/mL), surface vasculature ruptured, blotted with dry gauze weighed and kept on ice until further processing within 1 hour of collection. Each brain was homogenized in 1.5 mL cold phosphate-buffered saline, pH 7.4, for 10 seconds on ice using a POWERGEN 125 homogenizer. Each sample was then stored at −20° C. until further processing.
Brain homogenates collected as above were processed by adding an equal volume of chilled 26% (g/mL) neutral Dextran (average MW 65,000-85,000, from Sigma, catalog number D-1390) solution to obtain a final Dextran concentration of 13%. The homogenate was centrifuged at 5400×g for 15 minutes at 4° C. Supernatents were subsequently processed using acetonitrile precipitation and analyzed by HPLC-MS. A brain calibration curve was generated by spiking drug-free brain homogenate from the control animals with test compound at specified concentration levels. The spiked brain homogenate samples were processed together with the unknowns using the same procedure. Processed brain samples were stored frozen (−20° C.) until LC-MS/MS analysis.
Plasma samples collected as above were processed and analyzed as for the brain homogenate supernatents described above.
After processing, all samples were analyzed using HPLC-MS/MS analysis. HPLC analysis employed a Synergi Max-RP 80 HPLC column (2×50 mm, 4 μm, Phenomenex Part No. 00B-4337-B0), using a first mobile phase of 13.3 mM ammonium formate/6.7 mM formic acid in water, and a second mobile phase of 6 mM ammonium formate/3 mM formic acid in water/CH3CN (1/9, v/v). MS/MS analysis was done on a TSQ QUANTUM with selected reaction monitoring, positive ion mode, using a capillary temperature of 325° C. and a capillary voltage of 4.0 kV. Peak areas were recorded, and the concentrations of the test compound in the unknown brain samples were determined using the respective calibration curves.

Data set [2] can be described thus: Stability testing in solution. The class given is physicochemical. Particulars: de-ionized water, saline and PBS at pH of about 3 to 7.5. How it is done: Compounds of the present invention will be stable in solution and/or in powder form. To test for stability in different solutions (e.g., de-ionized water, de-ionized water adjusted with K2HPO4 to pH 7.4, de-ionized water adjusted with NaOH to pH 9, saline solution or PBS). The compounds are tested for degradation at different times at different temperatures. By way of example, compound 3b was stable in de-ionized water saline and PBS at pH of about 3 to 7.5.

A further data set concerns S. Aureus. The data set can be described thus: Antimicrobial susceptibility (zone of inhibition) test, Kirby-Bauer disc diffusion. The note with it: for The diameter of the zone including sample: S. Aureus, samples 30 ug/ml, Muller-Hinton agar, about 24 hrs, average of triplicate; for antimicrobial activity in this assay: disc diffusion, S. Aureus and E. Coli, 30 ug/ml. The class given is cell-based. How it is done: as §1, §2

Regarding `CN(C)c1cc2ncoc2c2c1C[C@H]1C[C@H]3[C@H](N(C)C)C(O)=C(C(N)=O)C(=O)[C@@]3(O)C(O)=C1C2=O` [Compound 3a, (6aR,7aS,8S,11aS)-5,8-bis(dimethylamino)-9,11a,12trihydroxy-11,13-dioxo-6,6a,7,7a,8,11,11a,13-octahydrotetraceno[2,1-d]oxazole-10carboxamide], in the data set with E. Coli, the “The diameter of the zone including sample” value (“The diameter” for short) is listed as “no zone”.

With `CN(C)c1cc2[nH]c(=O)oc2c2c1C[C@H]1C[C@H]3[C@H](N(C)C)C(O)=C(C(N)=O)C(=O)[C@@]3(O)C(O)=C1C2=O` [Compound 3b, (6aR,7aS,8S,11aS)-5,8bis(dimethylamino)-9,11a,12-trihydroxy-2,11,13-trioxo-2,3,6,6a,7,7a,8,11,11a,13decahydrotetraceno[2,1-d]oxazole-10-carboxamide], the “blood brain barrier penetration in vivo” value in data set [1] was “acceptable”. Also, in data set [1] (180 min, n=3), the “concentration in the brain” value was “below the limit of quantitation”. The concentration at 30 min in data set [1] (CD-1, mouse, brain, intravenous, 30 min, n=3, read-out: concentration in the brain) amounted to 6.7 ng/g; in data set [1] (CD-1, mouse, plasma, intravenous, 30 min, n=3, read-out: Plasma concentration), 97 ng/mL. The concentration at 60 min in data set [1] (CD-1, mouse, brain, intravenous, n=3, read-out: concentration in the brain) was 5.8 ng/g; in data set [1] (CD-1, mouse, plasma, intravenous, n=3, read-out: Plasma concentration) it was 27 ng/mL. Moreover, the Kp at 0.5 h in data set [1] (CD-1, mouse, brain/plasma, intravenous, 30 min, read-out: Calculated ratio of brain to plasma concentration) is 0.07. Besides, the concentration at 180 min in data set [1] (CD-1, mouse, plasma, intravenous, 180 min, n=3) was 4 ng/mL. Further, the stability in solution result in data set [2] is “stable”. Moreover, the “The diameter” value in the data set with E. Coli and with S. Aureus was “no zone” throughout. The “antimicrobial activity in this assay” value with S. Aureus is “no antimicrobial activity”.

`CN(C)c1cc2c(c3c1C[C@H]1C[C@H]4[C@H](N(C)C)C(O)=C(C(N)=O)C(=O)[C@@]4(O)C(O)=C1C3=O)OCC(=O)N2` [Compound 38, (6aR,7aS,8S,11aS)-5,8-bis(dimethylamino)-9,11a,12-trihydroxy-2,11,13trioxo-2,3,6,6a,7,7a,8,11,11a,13-decahydrotetraceno[2,1-d]morpholine-10-carboxamide]: in the data set on E. Coli, the “The diameter” value was “no zone”. Besides, in the data set on S. Aureus, the “The diameter” value is on record as “no zone” and the “antimicrobial activity in this assay” value is “no antimicrobial activity”.
